From US20250049776A1, “AUTOPHAGY INDUCING COMPOUNDS AND USES THEREOF, IN PARTICULAR FOR A SYSTEMIC TREATMENT OF DISEASES AND CONDITIONS” (Samsara Therapeutics Inc., priority 2021, published 2025)
Like-named read-outs stand apart in the source and are kept apart here.

Legend:
[1] = system: U2OS cell line stabling expressing RFP-eGFP-hLC3b; assay: Tandem reporter assay (autophagic flux, RFP-only puncta); format: cell-based; conditions: Homo sapiens, RFP-only puncta as percentage of DMSO-treated control, 24 hours; for activity at 1 µM: read-out: Autolysosome % DMSO activity (compound concentration of 1 μM); for activity at 10 µM: read-out: Autolysosome % DMSO activity (compound concentration of 10 μM)
Description: Selected compounds of this invention were also assessed for their ability to stimulate autophagy using a U20S cell line stabling expressing RFP-eGFP-hLC3b (a tandem reporter cell line). During the process of autophagy, the cargo to be degraded is first enveloped by organelles called autophagosomes. These autophagosomes then fuse with lysosomes, causing them to become acidified and their digestive enzymes to become activated. The term “autophagic flux” is used to represent the dynamic process of autophagy: autophagic flux refers to the whole process of autophagy, including autophagosome formation, maturation, fusion with lysosomes, subsequent breakdown and the release of macromolecules back into the cytosol (Zhang X J, Chen S, Huang K X, Le W D. Why should autophagic flux be assessed? Acta Pharmacol Sin. 2013 May; 34(5): 595-9. doi: 10.1038/aps.2012.184. Epub 2013 Mar. 11). Compounds that stimulate autophagic flux stimulate the dynamic process of autophagy (the whole process of autophagy).
LC3b is a protein found in the membrane of autophagosomes which has been used to generate genetic reporters of autophagy in cells. In these systems a tandem fusion of LC3b is engineered with two fluorescent proteins of different wavelengths: one which is acid sensitive (for example eGFP, which fluoresces green) and the other which is acid insensitive (for example RFP, which fluoresces red). Cells expressing RFP-eGFP-hLC3b can be examined using fluorescent microscopy: the autophagosomes present will fluoresce in both channels (either yellow in an overlay of both channels or puncta that are present in both the individual red and green channels) but the autolysosomes present will fluoresce in the RFP (red) channel only. Using a fluorescent microscope, the number of autophagosomes and autolysosomes can be counted, allowing for the monitoring of both the induction of autophagy (total puncta count) and the rate of autophagic flux (ratio of red-only to red-and-green puncta). The influence of small molecules on autophagy induction and flux can be assessed using this system by comparison to a non-treated control.
Representative Procedure: Human osteosarcoma U2OS cells stably expressing RFP-eGFP-hLC3b were seeded (10,000 cells/well) into a 96-well glass-bottom plate (Cell Carrier Ultra, Perkin Elmer) in DMEM Glutamax media (Gibco) supplemented with 10% Fetal Bovine Serum (FBS) and antibiotics (100 u/ml penicillin, 100 μg/ml streptomycin, Invitrogen), then incubated overnight in a humified atmosphere at 37° C. and 5% CO2. The cells were then treated with the compounds of interest, dissolved in DMSO, in a duplicated 5- or 10-point dose-response. 8 wells were treated with an equivalent volume of DMSO, 4 with 0.3 μM torin-1 as a positive control (MCE) and 4 wells with 0.4 μM torin-1 plus 0.2 μM bafilomycin (MCE) as a control for flux inhibition. The cells were returned to the incubator and the treatment continued for 24 hours. After treatment, the media was aspirated off and the cells fixed with a solution of 4% formaldehyde+1% glutaraldehyde (Sigma) in dPBS (plus magnesium and calcium, Gibco).
Fixation was allowed to proceed for 15 minutes at room temperature then the fixative solution discarded and replaced with PBS (Gibco) plus Hoescht 33342 ([…], Sigma). After 30 minutes the plates were imaged on an Opera Phenix confocal microscope (Perkin-Elmer) using a 40× water objective, collecting using DAPI, mCherry and GFP channels. Cells were detected based upon the staining of their nuclei with DAPI using the Harmony image analysis software (Perkin-Elmer) and the number of autophagosomes (GFP and RFP puncta) and autolysosomes (RFP only puncta) per cell were counted using the spot picking function within the software.

[2] = system: Human osteosarcoma U20S cells; assay: Assay to measure lysosome and autolysosome formation (acidic vesicle formation, LysoView/LysoTracker staining); format: cell-based; conditions: Homo sapiens, U2OS cells, concentration of 0.8 μM
In short: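 U2OS cells treated with compounds in DMSO for 24 h, then stained 45 min at 37 °C with 1× LysoView 633 or 50 nM LysoTracker Deep Red, with Hoechst nuclear counterstain. Live-cell fluorescence imaging at 37 °C; acidic vesicle formation judged against DMSO-treated control.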

[3] = read-out: Activity (percentage increase in acidic vesicle formation over the DMSO-treated control), Table 2

SMILES	activity at 1 µM [1]	activity at 10 µM [1]	activation at 0.8 µM [2, 3]	activation at 0.8 µM ([2]; read-out: Activity (percentage increase in acidic vesicle formation), Table 2a Preferred compounds)
CC(C)N(C(=O)c1csc(-c2cnn(-c3ccccc3Cl)c2)n1)[C@H]1CCNC1 [Compound 395, 2-[1-(2-chlorophenyl)-1H-pyrazol-4-yl]-N-(propan-2-yl)-N-[(3S)-pyrrolidin-3-yl]-1,3-thiazole-4-carboxamide]	137%	191%	–	–
CC(C)N(C(=O)c1csc(-c2cnn(C(C)C)c2)n1)[C@H]1CCNC1 [Compound 390, N-(propan-2-yl)-2-[1-(propan-2-yl)-1H-pyrazol-4-yl]-N-[(3S)-pyrrolidin-3-yl]-1,3-thiazole-4-carboxamide]	106%	116%	–	–
CCN(C(=O)c1csc(-c2cnn(-c3ccccn3)c2)n1)[C@H]1CCNC1 [Compound 367, N-ethyl-2-[1-(pyridin-2-yl)-1H-pyrazol-4-yl]-N-[(3S)-pyrrolidin-3-yl]-1,3-thiazole-4-carboxamide]	114%	215%	–	–
O=C(c1csc(-c2cnn(-c3ccccc3OC(F)(F)F)c2)n1)N1C[C@H]2C[C@@H]1CN2 [Compound 376, (1R,4R)-2-(2-{1-[2-(trifluoromethoxy)phenyl]-1H-pyrazol-4-yl}-1,3-thiazole-4-carbonyl)-2,5-diazabicyclo[2.2.1]heptane]	176%	260%	–	–
CC(C)N(C(=O)c1csc(-c2cnn(C)c2)n1)C1CCNCC1 [Compound 392, 2-(1-methyl-1H-pyrazol-4-yl)-N-(piperidin-4-yl)-N-(propan-2-yl)-1,3-thiazole-4-carboxamide]	97%	109%	–	–
CC(C)N(C(=O)c1csc(-c2cnn(C)c2)n1)[C@H]1CCNC1 [Compound 389, 2-(1-methyl-1H-pyrazol-4-yl)-N-(propan-2-yl)-N-[(3S)-pyrrolidin-3-yl]-1,3-thiazole-4-carboxamide]	101%	108%	–	–
CCN(C(=O)c1csc(-c2cnn(-c3ccccc3)n2)n1)[C@@H]1CCNC1 [Compound 365, N-ethyl-2-(2-phenyl-2H-1,2,3-triazol-4-yl)-N-[(3R)-pyrrolidin-3-yl]-1,3-thiazole-4-carboxamide]	183%	–	–	–
CC(C)N(C(=O)c1csc(-c2cnn(C(C)C)c2)n1)C1CCNCC1 [Compound 393, N-(piperidin-4-yl)-N-(propan-2-yl)-2-[1-(propan-2-yl)-1H-pyrazol-4-yl]-1,3-thiazole-4-carboxamide]	106%	110%	–	–
COc1ccccc1-n1cc(-c2nc(C(=O)N(C(C)C)[C@H]3CCNC3)cs2)cn1 [Compound 398, 2-[1-(2-methoxyphenyl)-1H-pyrazol-4-yl]-N-(propan-2-yl)-N-[(3S)-pyrrolidin-3-yl]-1,3-thiazole-4-carboxamide]	116%	190%	–	–
CN(C(=O)c1coc(-c2cnn(-c3ccccc3)c2)n1)[C@H]1CCNC1 [Compound 360, N-methyl-2-(1-phenyl-1H-pyrazol-4-yl)-N-[(3S)-pyrrolidin-3-yl]-1,3-oxazole-4-carboxamide]	113%	214%	–	–
CN(C(=O)c1nc(-c2cnn(-c3ccccc3)c2)c[nH]1)[C@H]1CCNC1 [Compound 359, N-methyl-5-(1-phenyl-1H-pyrazol-4-yl)-N-[(3S)-pyrrolidin-3-yl]-1H-imidazole-2-carboxamide]	113%	144%	–	–
Cc1ccccc1-n1cc(-c2nc(C(=O)N(C(C)C)[C@H]3CCNC3)cs2)cn1 [Compound 397, 2-[1-(2-methylphenyl)-1H-pyrazol-4-yl]-N-(propan-2-yl)-N-[(3S)-pyrrolidin-3-yl]-1,3-thiazole-4-carboxamide]	115%	191%	–	–
CC(C)N(C(=O)c1csc(-c2cnn(-c3ccccc3)c2)n1)C1CCNCC1F (stereo not drawn) [Compound 383, N-(3-fluoropiperidin-4-yl)-2-(1-phenyl-1H-pyrazol-4-yl)-N-(propan-2-yl)-1,3-thiazole-4-carboxamide]	98%	194%	–	–
CC(C)N(C(=O)c1csc(-c2cnn(C(C)(C)C)c2)n1)[C@H]1CCNC1 [Compound 391, 2-(1-tert-butyl-1H-pyrazol-4-yl)-N-(propan-2-yl)-N-[(3S)-pyrrolidin-3-yl]-1,3-thiazole-4-carboxamide]	109%	161%	–	–
CC(C)N(C(=O)c1csc(-c2cnn(-c3ccccc3OC(F)(F)F)c2)n1)[C@H]1CCNC1 [Compound 396, N-(propan-2-yl)-N-[(3S)-pyrrolidin-3-yl]-2-{1-[2-(trifluoromethoxy)phenyl]-1H-pyrazol-4-yl}-1,3-thiazole-4-carboxamide]	138%	78%	–	–
CN(C(=O)c1cnc(-c2cnn(-c3ccccc3)c2)[nH]1)[C@H]1CCNC1 [Compound 358, N-methyl-2-(1-phenyl-1H-pyrazol-4-yl)-N-[(3S)-pyrrolidin-3-yl]-1H-imidazole-4-carboxamide]	102%	103%	–	–
CC(C)N(C(=O)c1nc(-c2cnn(-c3ccccc3)c2)c[nH]1)[C@@H]1CCNC1 [Compound 345, 5-(1-phenyl-1H-pyrazol-4-yl)-N-(propan-2-yl)-N-[(3R)-pyrrolidin-3-yl]-1H-imidazole-2-carboxamide]	116%	72%	–	–
CN(C(=O)c1csc(-c2cnn(-c3ccccc3)n2)n1)[C@@H]1CCNC1 [Compound 363, N-methyl-2-(2-phenyl-2H-1,2,3-triazol-4-yl)-N-[(3R)-pyrrolidin-3-yl]-1,3-thiazole-4-carboxamide]	171%	–	–	–
CCN(C(=O)c1csc(-c2cnn(-c3ccccc3)n2)n1)[C@H]1CCNC1 [Compound 364, N-ethyl-2-(2-phenyl-2H-1,2,3-triazol-4-yl)-N-[(3S)-pyrrolidin-3-yl]-1,3-thiazole-4-carboxamide]	166%	–	–	–
CC(C)N(C(=O)c1coc(-c2cnn(-c3ccccc3)c2)n1)[C@H]1CCNC1 [Compound 381, 2-(1-phenyl-1H-pyrazol-4-yl)-N-(propan-2-yl)-N-[(3S)-pyrrolidin-3-yl]-1,3-oxazole-4-carboxamide]	118%	179%	–	–
CCCN(C(=O)c1cc(-c2cnn(-c3ccccc3)c2)cs1)C1CCNC1 (stereo not drawn) [Compound 141, 4-(1-phenyl-1H-pyrazol-4-yl)-N-propyl-N-(pyrrolidin-3-yl)thiophene-2-carboxamide]	–	–	50 to 100%	50 to 100%
NC[C@H]1CCCN1C(=O)c1ccc(-c2cnn(-c3ccccc3)c2)o1 [Compound 11, 1-[(2R)-1-[5-(1-phenyl-1H-pyrazol-4-yl)furan-2-carbonyl]pyrrolidin-2-yl]methanamine]	–	–	10 to 30%	–
CCCN(C(=O)c1csc(-c2cnn(-c3ccccc3C(F)(F)F)c2)n1)[C@H]1CCNC1 [Compound 82, N-propyl-N-[(3S)-pyrrolidin-3-yl]-2-{1-[2-(trifluoromethyl)phenyl]-1H-pyrazol-4-yl}-1,3-thiazole-4-carboxamide]	–	–	30 to 50%	–
CC(C)N(C(=O)c1csc(-c2cnn(-c3ccccn3)c2)n1)C1CCNCC1 [Compound 307, N-(piperidin-4-yl)-N-(propan-2-yl)-2-[1-(pyridin-2-yl)-1H-pyrazol-4-yl]-1,3-thiazole-4-carboxamide]	–	–	50 to 100%	–
